Reference: patent EP4786487A1, “PEPTIDE” (Peptidream Inc, priority 2023, dated 2025)
Read-outs that look alike come from different tables or passages of the source. Starred links: 1 amine or outer side, 2 acyl side, 3 side chain; linkers in the order of their positions; H or OH if unused. Positions of bridges follow the written chain, without caps; N, C: chain ends. Non-standard residues stand in square brackets, D forms with d. Residues, ends and D or L forms follow the SMILES beside them. *: point of attachment. X6 = CS(=O)(=O)c1ccc(-c2ccc(C[C@H](N[*:1])C(=O)[*:2])cc2)cc1; Phe(3-OCH2COOH) = N[C@@H](Cc1cccc(OCC(=O)O)c1)C(=O)O; Trp(1-Ph) = N[C@@H](Cc1cn(-c2ccccc2)c2ccccc12)C(=O)O; NMePhe(3-Ph) = CN[C@@H](Cc1cccc(-c2ccccc2)c1)C(=O)O; Piperidine(4-CH2CH2CONH2) = NC(=O)CCC1CCN(*)CC1; Phe(4-COOH) = N[C@@H](Cc1ccc(C(=O)O)cc1)C(=O)O; Trp(6-aza) = N[C@@H](Cc1c[nH]c2cnccc12)C(=O)O; Piperazinyl(4-CH2COOH) = O=C(O)CN1CCN(*)CC1; Piperidinyl(4-CH2COOH) = O=C(O)CC1CCN(*)CC1; Gly(decyl) = CCCCCCCCCC[C@H](N)C(=O)O; NMeF = CN[C@@H](Cc1ccccc1)C(=O)O; NMeE = CN[C@@H](CCC(=O)O)C(=O)O; Cha = N[C@@H](CC1CCCCC1)C(=O)O; NMeA = CN[C@@H](C)C(=O)O; NPrGly = CCCNCC(=O)O; NEtG = CCNCC(=O)O; Sar = CNCC(=O)O

Assays:
Myostatin = molecular target: T1, Myostatin (Homo sapiens, UniProt O14793); test: HepG2 reporter gene assay, Evaluation Procedure (2): 2-concentrations assay, myostatin inhibition; format: cell-based
T1 construct: active myostatin (also called mature myostatin) is a homodimer consisting of two C-terminal growth factor domains; purchased R&D systems 788-G8/CF
T1 sequence (O14793 267-375): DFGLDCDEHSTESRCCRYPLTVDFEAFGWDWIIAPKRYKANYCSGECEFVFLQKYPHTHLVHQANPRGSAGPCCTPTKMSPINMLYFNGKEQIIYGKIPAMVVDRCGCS
Procedure, shortened: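 HepG2 cells (HB-8065, ATCC) carrying the transfected pGL3(CAGA)12-luc reporter plasmid were treated with myostatin (788-G8/CF, R&D systems) at a final concentration of 10 ng/mL plus peptide and incubated at 37°C, 5% CO2 for 20 to 24 hours. Luminescence was read after adding PBS mixed 1:1 with One-Glo substrate, and inhibition rate was calculated.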

GDF-11 = molecular target: T2, GDF-11 (Homo sapiens, UniProt O95390); test: HepG2 reporter gene assay, Evaluation Procedure (2): 2-concentrations assay, GDF-11 inhibition; format: cell-based
T2 construct: purchased R&D systems 1958-GD-G8/CF
T2 sequence (O95390 299-407): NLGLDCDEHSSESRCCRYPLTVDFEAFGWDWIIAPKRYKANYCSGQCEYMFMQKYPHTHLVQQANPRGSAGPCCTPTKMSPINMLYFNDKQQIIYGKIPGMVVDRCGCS
Procedure, shortened: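 HepG2 cells carrying the transfected pGL3(CAGA)12-luc reporter, a pGL3 vector with luciferase placed downstream of 12 CAGA repeats, were stimulated with GDF-11 at a final 10 ng/mL together with test peptide. Blank wells received no GDF-11 and no peptide. Plates were incubated 20 to 24 hours at 37°C with 5% CO2. Luminescence from One-Glo substrate was read to calculate percent inhibition.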

[1] = Table 7-3/7-4, myostatin 10 ng/mL, peptide at the higher of the 2 concentrations, HepG2, read-out: inhibition rate (myostatin inhibition assay)
[2] = Table 7-3/7-4, myostatin 10 ng/mL, peptide at the lower of the 2 concentrations, HepG2, read-out: inhibition rate (myostatin inhibition assay)
[3] = HepG2, first GDF-11 column of Table 7-3/7-4, GDF-11 10 ng/mL, peptide at the lower of the 2 concentrations, read-out: inhibition rate (GDF-11 inhibition assay)
[4] = HepG2, second GDF-11 column of Table 7-3/7-4, GDF-11 10 ng/mL, peptide at the higher of the 2 concentrations, read-out: inhibition rate (GDF-11 inhibition assay)
[5] = HepG2, read-out: inhibition rate (myostatin inhibition assay)
[6] = HepG2, read-out: inhibition rate (GDF-11 inhibition assay), Table 7-3/7-4, GDF-11 10 ng/mL, peptide at the higher of the 2 concentrations
[7] = HepG2, read-out: inhibition rate (GDF-11 inhibition assay), Table 7-3/7-4, GDF-11 10 ng/mL, peptide at the lower of the 2 concentrations

| inhibition at 0.1 µM (Myostatin; [1]) [%] | inhibition at 0.03 µM (Myostatin; [2]) [%] | inhibition (GDF-11; [3]) [%] | inhibition (GDF-11; [4]) [%] | SMILES | inhibition at 0.03 µM (Myostatin; [5]) [%] | inhibition at 0.1 µM (Myostatin; [5]) [%] | inhibition (GDF-11; [6]) [%] | inhibition (GDF-11; [7]) [%] |
| --- | --- | --- | --- | --- | --- | --- | --- | --- |
| 100 | 100 | 0 | 0 | CCCCCCCCCC[C@@H]1NC(=O)[C@H](CC2CCCCC2)NC(=O)[C@H](CCCNC(=N)N)NC(=O)[C@H](Cc2ccc(C(=O)O)cc2)NC(=O)[C@H](Cc2cccc(OCC(=O)O)c2)NC(=O)[C@H](C)N(C)C(=O)[C@H]([C@@H](C)CC)NC(=O)[C@H](Cc2ccccc2)N(C)C(=O)[C@H](Cc2ccc(O)cc2)NC(=O)[C@H](Cc2cn(-c3ccccc3)c3ccccc23)NC(=O)[C@H](C)NC(=O)[C@H](C)NC(=O)CSC[C@H](C(=O)N2CCN(CC(=O)O)CC2)NC(=O)[C@H](Cc2cccc(-c3ccccc3)c2)N(C)C(=O)[C@H](CCC(=O)O)N(C)C1=O [Myostatin_99_v332] ({CH2CO}-AA[Trp(1-Ph)]Y[NMeF]I[NMeA][Phe(3-OCH2COOH)][Phe(4-COOH)]R[Cha][Gly(decyl)][NMeE][NMePhe(3-Ph)][dC]-{Piperazinyl(4-CH2COOH)}; thioether N-15) |  |  |  |  |
| 100 | 100 | 0 | 34 | CCCCCCCCCC[C@@H]1NC(=O)[C@H](CC2CCCCC2)NC(=O)[C@H](CCCNC(=N)N)NC(=O)[C@H](Cc2ccc(C(=O)O)cc2)NC(=O)[C@H](Cc2cccc(OCC(=O)O)c2)NC(=O)[C@H](C)N(C)C(=O)[C@H]([C@@H](C)CC)NC(=O)[C@H](Cc2ccccc2)N(C)C(=O)[C@H](Cc2ccc(O)cc2)NC(=O)[C@H](Cc2cn(-c3ccccc3)c3ccccc23)NC(=O)[C@H](C)NC(=O)[C@H](C)NC(=O)CSC[C@H](C(=O)N2CCN(CC(=O)O)CC2)NC(=O)[C@H](Cc2ccccc2)N(C)C(=O)[C@H](CCC(=O)O)N(C)C1=O [Myostatin_99_v333] ({CH2CO}-AA[Trp(1-Ph)]Y[NMeF]I[NMeA][Phe(3-OCH2COOH)][Phe(4-COOH)]R[Cha][Gly(decyl)][NMeE][NMeF][dC]-{Piperazinyl(4-CH2COOH)}; thioether N-15) |  |  |  |  |
| 99 | 90 | 0 | 0 | CCCCCCCCCC[C@@H]1NC(=O)[C@H](Cc2ccccc2)N(C)C(=O)[C@H](CCCNC(=N)N)NC(=O)[C@H](Cc2ccc(C(=O)O)cc2)NC(=O)[C@H](Cc2cccc(OCC(=O)O)c2)NC(=O)CN(CCC)C(=O)[C@H]([C@@H](C)CC)NC(=O)[C@H](Cc2ccccc2)N(C)C(=O)[C@H](Cc2ccc(O)cc2)NC(=O)[C@H](Cc2c[nH]c3ccccc23)NC(=O)[C@H](C)NC(=O)[C@H](C)NC(=O)CSC[C@H](C(=O)N2CCC(CC(=O)O)CC2)NC(=O)[C@H](Cc2ccccc2)N(C)C(=O)[C@H](CCC(=O)O)N(C)C1=O [Myostatin_99_v334] ({CH2CO}-AAWY[NMeF]I[NPrGly][Phe(3-OCH2COOH)][Phe(4-COOH)]R[NMeF][Gly(decyl)][NMeE][NMeF][dC]-{Piperidinyl(4-CH2COOH)}; thioether N-15) |  |  |  |  |
| 100 | 99 | 0 | 0 | CCCCCCCCCC[C@@H]1NC(=O)[C@H](Cc2ccccc2)N(C)C(=O)[C@H](CCCNC(=N)N)NC(=O)[C@H](Cc2ccc(C(=O)O)cc2)NC(=O)[C@H](Cc2cccc(OCC(=O)O)c2)NC(=O)CN(CC)C(=O)[C@H]([C@@H](C)CC)NC(=O)[C@H](Cc2ccccc2)N(C)C(=O)[C@H](Cc2ccc(O)cc2)NC(=O)[C@H](Cc2c[nH]c3ccccc23)NC(=O)[C@H](C)NC(=O)[C@H](C)NC(=O)CSC[C@H](C(=O)N2CCC(CC(=O)O)CC2)NC(=O)[C@H](Cc2ccccc2)N(C)C(=O)[C@H](CCC(=O)O)N(C)C1=O [Myostatin_99_v336] ({CH2CO}-AAWY[NMeF]I[NEtG][Phe(3-OCH2COOH)][Phe(4-COOH)]R[NMeF][Gly(decyl)][NMeE][NMeF][dC]-{Piperidinyl(4-CH2COOH)}; thioether N-15) |  |  |  |  |
| 96 | 82 | 0 | 0 | CCCCCCCCCC[C@@H]1NC(=O)[C@H](Cc2ccccc2)N(C)C(=O)[C@H](CCCNC(=N)N)NC(=O)[C@H](Cc2ccc(C(=O)O)cc2)NC(=O)[C@H](Cc2cccc(OCC(=O)O)c2)NC(=O)CN(CCC)C(=O)[C@H]([C@@H](C)CC)NC(=O)[C@H](Cc2ccccc2)N(C)C(=O)[C@H](Cc2ccc(O)cc2)NC(=O)[C@H](Cc2c[nH]c3cnccc23)NC(=O)[C@H](C)NC(=O)[C@H](C)NC(=O)CSC[C@H](C(=O)N2CCC(CC(=O)O)CC2)NC(=O)[C@H](Cc2ccccc2)N(C)C(=O)[C@H](CCC(=O)O)N(C)C1=O [Myostatin_99_v337] ({CH2CO}-AA[Trp(6-aza)]Y[NMeF]I[NPrGly][Phe(3-OCH2COOH)][Phe(4-COOH)]R[NMeF][Gly(decyl)][NMeE][NMeF][dC]-{Piperidinyl(4-CH2COOH)}; thioether N-15) |  |  |  |  |
| 100 | 95 | 0 | 0 | CCCCCCCCCC[C@@H]1NC(=O)[C@H](Cc2ccccc2)N(C)C(=O)[C@H](CCCNC(=N)N)NC(=O)[C@H](Cc2ccc(C(=O)O)cc2)NC(=O)[C@H](Cc2cccc(OCC(=O)O)c2)NC(=O)CN(C)C(=O)[C@H]([C@@H](C)OC)NC(=O)[C@H](Cc2ccccc2)N(C)C(=O)[C@H](Cc2ccc(O)cc2)NC(=O)[C@H](Cc2c[nH]c3ccccc23)NC(=O)[C@H](C)NC(=O)[C@H](C)NC(=O)CSC[C@H](C(=O)N2CCC(CC(=O)O)CC2)NC(=O)[C@H](Cc2ccccc2)N(C)C(=O)[C@H](CCC(=O)O)N(C)C1=O [Myostatin_99_v340] ({CH2CO}-AAWY[NMeF]T(Me)[Sar][Phe(3-OCH2COOH)][Phe(4-COOH)]R[NMeF][Gly(decyl)][NMeE][NMeF][dC]-{Piperidinyl(4-CH2COOH)}; thioether N-15) |  |  |  |  |
|  |  |  |  | CCCCCCCCCC[C@@H]1NC(=O)[C@H](Cc2ccccc2)N(C)C(=O)[C@H](CCCNC(=N)N)NC(=O)[C@H](Cc2ccc(C(=O)O)cc2)NC(=O)[C@H](Cc2cccc(OCC(=O)O)c2)NC(=O)[C@H]2CCCN2C(=O)[C@H]([C@@H](C)CC)NC(=O)[C@H](Cc2ccccc2)N(C)C(=O)[C@H](Cc2ccc(O)cc2)NC(=O)[C@H](Cc2ccc(-c3ccc(S(C)(=O)=O)cc3)cc2)NC(=O)[C@H](C)NC(=O)[C@H](C)NC(=O)CSC[C@H](C(=O)N2CCC(CC(=O)O)CC2)NC(=O)[C@H](Cc2ccccc2)N(C)C(=O)[C@H](CCC(=O)O)N(C)C1=O [Myostatin_99_v342] ({CH2CO}-AA[X6]Y[NMeF]I[dP][Phe(3-OCH2COOH)][Phe(4-COOH)]R[NMeF][Gly(decyl)][NMeE][NMeF][dC]-{Piperidinyl(4-CH2COOH)}; thioether N-15) | 100 | 100 | 47 | 0 |
|  |  |  |  | CCCCCCCCCC[C@@H]1NC(=O)[C@H](Cc2ccccc2)N(C)C(=O)[C@H](CCCNC(=N)N)NC(=O)[C@H](Cc2ccc(C(=O)O)cc2)NC(=O)[C@H](Cc2cccc(OCC(=O)O)c2)NC(=O)[C@H]2CCCN2C(=O)[C@H]([C@@H](C)CC)NC(=O)[C@H](Cc2ccccc2)N(C)C(=O)[C@H](Cc2ccc(O)cc2)NC(=O)[C@H](Cc2ccc(-c3ccc(S(C)(=O)=O)cc3)cc2)NC(=O)[C@H](C)NC(=O)[C@H](C)NC(=O)CSC[C@H](C(=O)N2CCC(CCC(N)=O)CC2)NC(=O)[C@H](Cc2ccccc2)N(C)C(=O)[C@H](CCC(=O)O)N(C)C1=O [Myostatin_99_v345] ({CH2CO}-AA[X6]Y[NMeF]I[dP][Phe(3-OCH2COOH)][Phe(4-COOH)]R[NMeF][Gly(decyl)][NMeE][NMeF][dC]-{Piperidine(4-CH2CH2CONH2)}; thioether N-15) | 100 | 100 | 70 | 7 |
